For one assay, the target named is Nonstructural protein 1 (Influenza A virus, UniProt Q194T2). It counts as functional, Influenza A virus (A/California/07/2009(H1N1)).
Assay [1] has as its target FAD-linked sulfhydryl oxidase ALR (Homo sapiens, UniProt P55789). Description: inhibitors of human ALR sulfhydryl oxidase, dose response, biochemical, H2O2 detection, luminescence, cherry-pick (AID 493248).
A short description of assay [2]: Shn3 3'UTR reporter inhibitors, dose response, cell-based, Clone20 osteoblasts, firefly luciferase, cherry-picked (AID 624132).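 Further: firefly luciferase luminescence from reporter carrying the Shn3 3'UTR in osteoblasts.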 Type of assay: functional.
Assay [3] deals with T1, Replicative DNA helicase DnaB (Mycobacterium tuberculosis, UniProt P9WMR3).
T1 sequence (P9WMR3 whole entry): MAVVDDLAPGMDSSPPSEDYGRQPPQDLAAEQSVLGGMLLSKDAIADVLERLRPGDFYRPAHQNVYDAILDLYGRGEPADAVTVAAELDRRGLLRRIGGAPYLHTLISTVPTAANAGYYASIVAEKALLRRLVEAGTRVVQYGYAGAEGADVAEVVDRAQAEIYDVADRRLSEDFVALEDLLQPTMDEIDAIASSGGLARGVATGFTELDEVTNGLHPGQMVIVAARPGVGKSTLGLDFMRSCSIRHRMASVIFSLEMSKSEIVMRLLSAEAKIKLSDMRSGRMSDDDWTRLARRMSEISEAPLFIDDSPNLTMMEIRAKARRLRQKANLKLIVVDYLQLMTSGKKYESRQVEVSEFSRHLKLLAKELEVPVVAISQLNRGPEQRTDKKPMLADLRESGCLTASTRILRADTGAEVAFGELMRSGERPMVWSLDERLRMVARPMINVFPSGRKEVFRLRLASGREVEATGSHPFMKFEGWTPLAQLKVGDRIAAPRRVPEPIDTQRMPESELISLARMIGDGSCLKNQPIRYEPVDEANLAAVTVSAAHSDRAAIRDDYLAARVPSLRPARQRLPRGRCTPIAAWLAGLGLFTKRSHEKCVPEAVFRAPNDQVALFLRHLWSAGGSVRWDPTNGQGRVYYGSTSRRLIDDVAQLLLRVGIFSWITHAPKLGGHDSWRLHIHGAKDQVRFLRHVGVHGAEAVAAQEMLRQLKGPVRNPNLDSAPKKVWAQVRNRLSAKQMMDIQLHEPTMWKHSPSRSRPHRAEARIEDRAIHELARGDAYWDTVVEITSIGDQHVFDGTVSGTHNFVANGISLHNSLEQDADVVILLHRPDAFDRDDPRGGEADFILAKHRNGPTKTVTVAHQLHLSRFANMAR
Description: DnaB intein splicing inhibitors, dose response, biochemical, cell-free fluorescence (AID 449749). Type of assay: functional.

The next assay deals with T2, Protein RecA (Mycobacterium tuberculosis, UniProt P9WHJ3).
T2 sequence (P9WHJ3 whole entry): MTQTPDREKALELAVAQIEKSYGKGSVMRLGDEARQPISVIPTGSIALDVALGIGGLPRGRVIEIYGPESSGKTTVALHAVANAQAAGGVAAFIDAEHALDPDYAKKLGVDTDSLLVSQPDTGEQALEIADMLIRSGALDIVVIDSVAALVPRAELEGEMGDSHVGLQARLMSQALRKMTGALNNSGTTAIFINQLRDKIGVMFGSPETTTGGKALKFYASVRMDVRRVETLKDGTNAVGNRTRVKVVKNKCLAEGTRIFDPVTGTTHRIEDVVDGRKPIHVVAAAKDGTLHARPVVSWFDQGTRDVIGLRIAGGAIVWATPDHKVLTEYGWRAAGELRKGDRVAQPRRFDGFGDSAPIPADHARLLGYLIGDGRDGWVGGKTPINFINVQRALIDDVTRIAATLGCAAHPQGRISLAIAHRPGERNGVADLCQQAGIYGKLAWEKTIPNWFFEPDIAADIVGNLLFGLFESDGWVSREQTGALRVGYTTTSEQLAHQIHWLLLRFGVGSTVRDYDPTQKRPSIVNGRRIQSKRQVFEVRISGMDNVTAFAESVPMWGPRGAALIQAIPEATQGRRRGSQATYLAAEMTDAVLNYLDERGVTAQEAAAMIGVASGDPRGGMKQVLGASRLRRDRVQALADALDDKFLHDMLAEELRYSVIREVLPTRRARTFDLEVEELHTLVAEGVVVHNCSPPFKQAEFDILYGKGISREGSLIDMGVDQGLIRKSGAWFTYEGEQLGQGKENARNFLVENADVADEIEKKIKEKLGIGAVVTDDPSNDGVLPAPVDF
Description: Fluorescence Cell-Free Homogeneous Dose Retest to Identify Inhibitors of RecA-Intein Splicing Activity. [Related pubchem assays (depositor defined):AID2097, AID2223, AID489010, AID492950]. Type of assay: functional.

Assay [4] is described as follows: inhibitors of intracellular T. cruzi replication, confirmation, NIH3T3 host cells, beta-gal luminescence (AID 2044).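 Further: intracellular parasites grown in NIH/3T3 mouse fibroblasts as host cells; luminescent beta-galactosidase reporter signal from transgenic T. cruzi replicating inside host cells; inhibitors lower the luminescence signal.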 It counts as functional, cell-based.
The test system of the next assay is Streptococcus. Briefly: Group A Streptococcus viability loss, dose response, counter-screen for streptokinase expression inhibitor project, luminescence, BacTiterGlo (AID 1915).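 Further: potency for reduction of bacterial viability or growth.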 Type of assay: functional, organism-based.
Assay [5] is described as follows: cytotoxicity toward NIH3T3 fibroblasts, dose response, counter-screen, cell-based, ATP luminescence, mouse fibroblasts (AID 2010).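 Further: cells exposed to compound for about 90 hours before reading.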 It counts as functional.
The next assay deals with T3, Streptokinase A (Streptococcus pyogenes serotype M1, UniProt P10520).
T3 sequence (P10520 whole entry): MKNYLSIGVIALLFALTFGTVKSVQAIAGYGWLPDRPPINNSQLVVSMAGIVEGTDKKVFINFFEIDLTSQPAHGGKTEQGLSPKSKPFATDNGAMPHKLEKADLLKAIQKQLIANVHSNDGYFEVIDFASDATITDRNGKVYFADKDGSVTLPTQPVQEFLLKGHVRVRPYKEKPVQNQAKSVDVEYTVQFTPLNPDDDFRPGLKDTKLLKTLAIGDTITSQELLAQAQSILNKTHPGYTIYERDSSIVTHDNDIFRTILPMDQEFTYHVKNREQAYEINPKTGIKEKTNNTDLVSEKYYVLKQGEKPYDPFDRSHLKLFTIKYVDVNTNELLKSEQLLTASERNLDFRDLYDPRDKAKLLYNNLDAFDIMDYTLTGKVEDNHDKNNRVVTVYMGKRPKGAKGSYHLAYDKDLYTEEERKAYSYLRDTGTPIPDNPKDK
Description: S. pyogenes streptokinase expression inhibitors, potency, dose response, plasminogen activation absorbance, OD405 (AID 1914).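 Further: secreted streptokinase activity via plasminogen activation per viability signal from cell pellet.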 Type of assay: functional, Streptococcus pyogenes M1 GAS.

Assay [6] deals with Streptococcus sp. 'group A'. Briefly: growth inhibition of control SK(-) GAS strain, dose response, counter-screen for streptokinase expression inhibitor project, luminescence, kanamycin, BacTiterGlo, confirmation (AID 1900). Type of assay: functional, organism-based.
A short description of assay [7]: microbe, parasite or virus in culture. It counts as functional. The conditions noted are these: Mycobacterium tuberculosis.
The target of a further assay is Cytochrome P450 3A4 (Homo sapiens, UniProt P08684).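 Further: CYP3A4 tested as one member of a cytochrome P450 panel screen.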
Chain of Cytochrome P450 3A4 (P08684 whole entry): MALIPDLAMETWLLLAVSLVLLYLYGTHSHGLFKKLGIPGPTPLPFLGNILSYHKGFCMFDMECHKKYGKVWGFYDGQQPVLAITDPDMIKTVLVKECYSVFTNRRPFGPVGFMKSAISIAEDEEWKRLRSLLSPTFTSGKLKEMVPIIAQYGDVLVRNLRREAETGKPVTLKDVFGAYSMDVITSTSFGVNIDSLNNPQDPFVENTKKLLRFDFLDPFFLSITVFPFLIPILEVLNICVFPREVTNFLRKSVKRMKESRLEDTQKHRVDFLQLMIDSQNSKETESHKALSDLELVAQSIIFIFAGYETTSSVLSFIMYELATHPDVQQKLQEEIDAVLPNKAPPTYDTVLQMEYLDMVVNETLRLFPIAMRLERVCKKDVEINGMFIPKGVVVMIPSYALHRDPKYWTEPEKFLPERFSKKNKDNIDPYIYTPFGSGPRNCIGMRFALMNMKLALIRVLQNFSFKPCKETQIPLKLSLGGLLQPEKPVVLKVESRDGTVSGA
Assay [8] is described as follows: HEp-2 cell cytotoxicity, dose response, cytotoxicity control for RSV inhibitor project, HTS (AID 2410). Type of assay: functional. The conditions noted are these: human respiratory syncytial virus.
Assay [9] is described as follows: cells. Type of assay: functional, cell-based.
Assay [10] in a line: cells. Type of assay: functional, cell-based. This is another data set of the same source.

Molecules are shown by their SMILES. Calls of active or inactive are those of the source.

Chain of FAD-linked sulfhydryl oxidase ALR (P55789 whole entry): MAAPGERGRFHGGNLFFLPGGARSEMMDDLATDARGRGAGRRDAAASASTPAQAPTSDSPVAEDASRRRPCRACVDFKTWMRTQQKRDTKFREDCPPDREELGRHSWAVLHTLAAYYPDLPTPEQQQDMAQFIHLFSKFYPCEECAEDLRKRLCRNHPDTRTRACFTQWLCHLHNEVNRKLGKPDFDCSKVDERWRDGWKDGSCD
Chain of Nonstructural protein 1 (Q194T2 whole entry): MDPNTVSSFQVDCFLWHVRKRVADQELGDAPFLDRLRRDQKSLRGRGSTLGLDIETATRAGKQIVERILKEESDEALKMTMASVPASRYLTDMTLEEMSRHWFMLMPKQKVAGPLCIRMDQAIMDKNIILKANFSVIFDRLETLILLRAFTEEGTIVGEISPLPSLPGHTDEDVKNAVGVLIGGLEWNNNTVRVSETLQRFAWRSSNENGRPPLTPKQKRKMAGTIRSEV

In the case of `COc1ccc(C2C(C#N)=C(N)Nc3onc(C(C)(C)C)c32)c(OC)c1` (configuration not stated), the IC50 on Nonstructural protein 1 was > 100 µM (active). Consider `COc1cccc(NC(=O)N2CCN(c3cccc(C)c3)C(C)C2)c1` (configuration not stated), for which the half-maximal activity concentration (AC50) in assay [1] was 6.28 µM (active).

As for `CCCCN1CC(COCc2ccccc2)Oc2cccc(Oc3cc(C)c(C)c(C)c3)c2S1(=O)=O` (configuration not stated), in assay [2], the AC50 was 9.16 µM (active). Regarding `N#CC1=C(N)Oc2[nH]nc(-c3cccs3)c2C1c1ccncc1` (configuration not stated), the concentration at half-maximal activity (AC50) in assay [3] is 31 µM (active). The EC50 on Protein RecA is 5.36 µM (active).

Regarding `CC(C)(C)c1ccc(S(=O)(=O)N2CCC(c3nc4cc(Cl)ccc4[nH]3)CC2)cc1`, the EC50 is 2.97 µM (active) in assay [4]; 45.8 µM (active) with Streptococcus; > 60 µM (not active) in assay [5]; 4.13 µM (active) on Streptokinase A; 5.2 µM (active) in assay [6]. In the case of `CCCOC(=O)c1ccc(OC(=O)c2ccco2)cc1`, the concentration at half-maximal activity (AC50) in assay [3] was 13 µM (active). For the same compound, the EC50 at Protein RecA was 11.8 µM (active). `Cc1cccc(N2CCN(C(=O)c3ccncc3)CC2C)c1` (configuration not stated): in assay [1], the AC50 is 9.32 µM (active). In the case of `N#CC(c1ccccc1)c1cnccn1` (configuration not stated), the AC50 in assay [3] was > 380 µM (inactive). Further, the EC50 at Protein RecA was > 380 µM (inactive). Regarding `CN(C)c1cccc(C(=O)NCc2ccccc2)c1`, the concentration at half-maximal activity (AC50) in [1] was 5.25 µM (active). `Cc1ccc(N2C(=O)CSC2c2cccnc2)cc1F` (configuration not stated): the AC50 in assay [1] was 0.193 µM (active). Consider `CC1=NN(c2ccccc2)C(=O)C1` [EDARAVONE], for which the half-maximal activity concentration (AC50) in assay [3] is 2.75 µM (active). Moreover, the EC50 at Protein RecA is 2.95 µM (active).

Regarding `OCCN(Cc1cccnc1)Cc1ccccn1`, the IC50 at Nonstructural protein 1 is 4.64 µM (active). For the compound `Fc1cccc2sc(Nc3nc4cc5c(cc4s3)OCO5)nc12`, the CC50 in assay [7] was > 40 µM (active). Moreover, the EC50 (in the assay with Streptococcus; on Streptokinase A; in [6]) was > 150 µM (not active) throughout. Regarding `CCN(c1ccc(NC(=O)COC(=O)c2ccc3ccccc3n2)cc1)C(C)C`, the half-maximal activity concentration (AC50) on Cytochrome P450 3A4 was 39.8 µM (inconclusive). Moreover, the IC50 on Nonstructural protein 1 is 93.5 µM (active). As to `O=C(N/N=C/c1ccc(-c2ccccc2[N+](=O)[O-])o1)[C@H]1C[C@@H]1c1ccccc1`, in assay [8], the CC50 is 18.3 µM (active). In [3], the AC50 is 8.14 µM (active). In addition, the EC50 on Protein RecA was 18.9 µM (active). As for `Nc1ccc(-c2cn3cccnc3n2)cc1`, the EC50 (in the assay on Streptococcus; on Streptokinase A; in assay [6]) was > 150 µM (not active) in each case. On to `Cc1csc(=O)n1CC(=O)OCC(=O)c1c(N)n(C)c(=O)n(C)c1=O`, for which the AC50 in assay [2] is 27.1 µM (active). Turning to `C/C(N)=C(/C#N)C(=O)CSc1nc2scc(-c3ccccc3)c2c(=O)n1C`, the EC50 is 11.9 µM (active) in the assay on Streptococcus, > 150 µM (not active) at Streptokinase A and 1.8 µM (active) in assay [6]. In the case of `CCCc1cc(C(=O)N2CCCC(N3CCN(c4ccc(F)cc4)CC3)C2)no1` (configuration not stated), the AC50 in assay [1] was > 100 µM (inactive). Turning to `Sc1nnc(-c2cccc3ccccc23)n1-c1cccnc1`, the concentration at half-maximal activity (AC50) in assay [1] was 8.24 µM (active).

In the case of `Cc1cccc(-c2noc(CN(C)S(=O)(=O)c3cc(Cl)ccc3Cl)n2)c1`, the EC50 in the assay “cells [9]” and in “cells [10]” was > 350 µM (not active) each time. With `Cc1n[nH]c(O)c1C(c1ccc(O)c(Br)c1)c1c(C)n[nH]c1O`, the half-maximal activity concentration (AC50) in [3] was 0.326 µM (active). For the same compound, the EC50 on Protein RecA was 0.232 µM (active). For `Oc1cccc(Nc2nc(-c3ccccc3Cl)nc3ccccc23)c1`, the CC50 in assay [8] was 27.1 µM (active). Further, the concentration at half-maximal activity (AC50) in assay [3] is 138 µM (active). Further, the EC50 at Protein RecA is > 380 µM (inactive).

For the compound `COc1cccc(-n2c(S)nnc2CCn2nc(C)c([N+](=O)[O-])c2C)c1`, the half-maximal activity concentration (AC50) in assay [1] was 10.6 µM (active). For `Cc1cccc(Sc2c([N+](=O)[O-])ncn2C)c1`, the half-maximal activity concentration (AC50) in assay [1] is 0.265 µM (active).
